Patent publication US20200046620A1, “Solid Compositions for Teeth Whitening and Anti-Microbial Effects” (Colgate-Palmolive Company, priority 2018, published 2020)

Assay: pH-dependent bleaching of Lissamine green B dye by NaDCC
Assay type: physicochemical
Details: 10 mg NaDCC in 20 mL
Description: Two different solutions, Solution A and Solution B, were prepared. Solution A contained 2% SAPP, 0.1% Lissamine green B dye, and 97.9% water. Solution B contained 2% tetrasodium pyrophosphate (TSPP), 0.1% Lissamine green B dye, and 97.9% water. Next, solutions with various pHs were obtained by mixing the two different solutions A and B, in different volume ratios (i.e., 1:0, 1:5, 1:1, 5:1, and 0:1). 20 mL of the resulting solutions were added to 10 mg NaDCC, and the time required to bleach away all of the Lissamine green B color was recorded.

Structure (SMILES): O=c1nc([O-])n(Cl)c(=O)n1Cl.[Na+] [NaDCC, sodium dichloroisocyanurate]
- Time to bleach (Mix Solution 1, VA:VB 1:0, pH 4.6): Instantaneous
- Time to bleach (Mix Solution 2, VA:VB 1:5, pH 5.8): 0.25 min
- Time to bleach (Mix Solution 3, VA:VB 1:1, pH 7.4): 8 min
- Time to bleach (Mix Solution 4, VA:VB 5:1, pH 8.8): 35 min
- Time to bleach (Mix Solution 5, VA:VB 0:1, pH 10.5): 80 min
